Results from patent publication US9976141B2, “Compositions and methods for inhibiting gene expression of Hif2alpha” (Arrowhead Madison Inc., priority 2015, dated 2018).
Several values for one entry are separate records, joined by “and”; a condition that tells them apart may be missing. Equal entries are not always repeated.

Tested on: human (tumor) Hif2α (EPAS1) mRNA
Experiment: Hif2α knockdown in orthotopic RCC tumor bearing mice, single injection of RNAi trigger-delivery polymer conjugate, RT-qPCR (Table 7)
Type: in vivo
Conditions: single tail vein injection, relative to isotonic glucose
Description: A pCR3.1 expression vector expressing the reporter gene secreted alkaline phosphatase (SEAP) under the CMV promoter was prepared by directional cloning of the SEAP coding sequence PCR amplified from Clontech's pSEAP2-basic vector. Convenient restriction sites were added onto primers used to amplify the SEAP coding sequence for cloning into the pCR3.1 vector (Invitrogen). The resultant construct pCR3-SEAP was used to create a SEAP-expressing A498 ccRCC cell line. Briefly, pCR3-SEAP plasmid was transfected into A498 ccRCC cells by electroporation following manufacturer's recommendation. Stable transfectants were selected by G418 resistance. Selected A498-SEAP clones were evaluated for SEAP expression and integration stability.
Female athymic nude mice were anesthetized with ˜3% isoflourane and placed in the right lateral decubitus position. A small, 0.5-1 cm, longitudinally abdominal incision in the left flank was made. Using a moist cotton swab, the left kidney was lifted out of the peritoneum and gently stabilized. Just before injection, a 1.0 ml syringe was filled with the cell/Matrigel mixture and a 27 gauge needle catheter was attached to the syringe tip. The filled syringe was then attached to a syringe pump (Harvard Apparatus, model PHD2000) and primed to remove air. The tip of a 27-gauge needle catheter attached to a syringe was inserted just below the renal capsule near the caudal pole and the tip of the needle was then carefully advanced cranially along the capsule 3-4 mm. A 10 μl aliquot of 2:1 (vol:vol) cell/matrigel mixture containing about 300,000 cells was slowly injected into the kidney parenchyma using a syringe pump. The needle was left in the kidney for 15-20 seconds to ensure the injection was complete. The needle was then removed from the kidney and a cotton swab was placed over the injection site for 30 seconds to prevent leakage of the cells or bleeding. The kidney was then gently placed back into the abdomen and the abdominal wall was closed. Serum was collected every 7-14 days after implantation to monitor tumor growth using a commercial SEAP assay kit. For most studies, tumor mice were used 5-6 weeks after implantation, when tumor measurements were typically around 4-8 mm.
RGD targeted HiF2α-RNAi trigger delivery conjugates. Delivery polymers were modified using RGD-PEG-HyNic, RGD-PEG-ACit-PNP, or RDG-PEG-FCitFP-TFP and PEG-dipeptide modifying agents. The indicated amount of polymer 126 or 100A polymer was modified with 8×PEG12-ACit-PABC-PNP/0.5× aldehyde-PEG24-FCit-PABC-PNP (with RGD mimic #1-PEG-HyNic using protocol #1) and the indicated amount of the indicated Hif2α RNAi trigger. Polymer 064 was modified according to protocol 7. Kidney RCC tumor-bearing mice were generated as described and treated with a single tail vein injection of isotonic glucose (G1) or the indicated Hif2α RNAi trigger-delivery polymer conjugate. Mice were euthanized at the indicated time after injection and total RNA was prepared from kidney tumor using Trizol reagent following manufacturer's recommendation. Relative HiF2α mRNA levels were determined by RT-qPCR as described below and compared to mice treated with delivery buffer (isotonic glucose) only.
In preparation for quantitative PCR, total RNA was isolated from tissue samples homogenized in TriReagent (Molecular Research Center, Cincinnati, Ohio) following the manufacturer's protocol. Approximately 500 ng RNA was reverse-transcribed using the High Capacity cDNA Reverse Transcription Kit (Life Technologies). For human (tumor) Hif2α (EPAS1) expression, pre-manufactured TaqMan gene expression assays for human Hif2α (Catalog #4331182) and CycA (PPIA) Catalog #: 4326316E) were used in biplex reactions in triplicate using TaqMan Gene Expression Master Mix (Life Technologies) or VeriQuest Probe Master Mix (Affymetrix). […]

[1] = RNAi trigger 50 μg, polymer 064 125 μg

## AD01887 (antisense UCUAGCAACAAAACCUUAATT; sense UUAAGGUUUUGUUGCUAGAT; Hif2alpha RNAi agent antisense strand; modified_base 2,4,6,9,10,13,14,16,18 /mod_base = “2′-deoxy-2′-fluoro corresponding nucleoside”; modified_base 1,3,5,7,8,11,12,15,17,19 /mod_base = “2′-O-methyl corresponding nucleoside”; modified_base 2,3,21 /mod_base = “5′-phosphorothioate corresponding nucleotide”; Hif2alpha RNAi agent sense strand; modified_base 3,5,8,9,13,15,17 /mod_base = “2′-deoxy-2′-fluoro corresponding nucleoside”; modified_base 1,2,4,6,7,10,11,12,14,16,18,19 /mod_base = “2′-O-methyl corresponding nucleoside”; modified_base 20 /mod_base = “3′-3′-linked nucleotide”; modified_base)
RNAi trigger 100 μg, polymer 064 250 μg
  Relative Expression day 4 (Hif2α mRNA in kidney tumor): 0.329

## AD01658 (antisense TUUCAUGAAAUCGUUACGUTT; sense ACGUAACGAUUUCAUGAAA; Hif2alpha RNAi agent antisense strand; modified_base 2,4,6,8,10,12,14,15,18 /mod_base = “2′-deoxy-2′-fluoro corresponding nucleoside”; modified_base 3,5,7,9,11,13,16,17,19 /mod_base = “2′-O-methyl corresponding nucleoside”; modified_base 2,3,21 /mod_base = “5′-phosphorothioate corresponding nucleotide”; Hif2alpha RNAi agent sense strand; modified_base 1,3,4,7,9,11,13,15,17,19 /mod_base = “2′-deoxy-2′-fluoro corresponding nucleoside”; modified_base 2,5,6,8,10,12,14,16,18 /mod_base = “2′-O-methyl corresponding nucleoside”; modified_base 2 /mod_base = “5′-phosphorothioate corresponding nucleoti)
RNAi trigger 100 μg, polymer 100A 250 μg
  Relative Expression day 4 (Hif2α mRNA in kidney tumor): 0.138

## AD03256 (antisense AUUCAUGAAAUCGUUACGUUGAT; sense AACGUAACGAUUUCAUGAAUT; Hif2alpha RNAi agent antisense strand; modified_base 2,4,6,8,14 /mod_base = “2′-deoxy-2′-fluoro corresponding nucleoside”; modified_base 1,3,5,7,9,10,11,12,13,15,16,17,18,19,20,21,22 /mod_base = “2′-O-methyl corresponding nucleoside”; modified_base 23 /mod_base = “3′-3′-linked nucleotide”; modified_base 2,3,22,23 /mod_base = “5′-phosphorothioate corresponding nucleotide”; Hif2alpha RNAi agent sense strand; modified_base 8,9,10 /mod_base = “2′-deoxy-2′-fluoro corresponding nucleoside”; modified_base 1,2,3,4,5,6,7,11,12,13,14,15,16,17,18,19,20 /mod_base = “2′-O-methyl corresponding nucleoside”)
[1]
  Relative Expression day 4 (Hif2α mRNA in kidney tumor): 0.333

## AD02695 (antisense UUUCAUGAAAUCGUUACGUUG; sense ACGUAACGAUUUCAUGAAAT; Hif2alpha RNAi agent antisense strand; modified_base 2,4,6,8,10,14,16,18 /mod_base = “2′-deoxy-2′-fluoro corresponding nucleoside”; modified_base 1,3,5,7,9,11,12,13,15,17,19,20,21 /mod_base = “2′-O-methyl corresponding nucleoside”; modified_base 2,3,20,21 /mod_base = “5′-phosphorothioate corresponding nucleotide”; Hif2alpha RNAi agent sense strand; modified_base 7,9,13 /mod_base = “2′-deoxy-2′-fluoro corresponding nucleoside”; modified_base 1,2,3,4,5,6,8,10,11,12,14,15,16,17,18,19 /mod_base = “2′-O-methyl corresponding nucleoside”; modified_base 20 /mod_base = “3′-3′-linked nucleotide”; modi)
[1]
  Relative Expression day 4 (Hif2α mRNA in kidney tumor): 0.123
RNAi trigger 75 μg, polymer 064 187.5 μg
  Relative Expression day 4 (Hif2α mRNA in kidney tumor): 0.101 and 0.155

## AD02875 (antisense AUUCAUGAAAUCGUUACGUUG; sense UAUACGUAACGAUUUCAUGAAUT; Hif2alpha RNAi agent antisense strand; modified_base 2,4,6,8,10,14,16,18 /mod_base = “2′-deoxy-2′-fluoro corresponding nucleoside”; modified_base 1,3,5,7,9,11,12,13,15,17,19,20,21 /mod_base = “2′-O-methyl corresponding nucleoside”; modified_base 2,3,20,21 /mod_base = “5′-phosphorothioate corresponding nucleotide”; Hif2alpha RNAi agent sense strand; modified_base 2 modified base = “2′-hydroxy corresponding nucleoside”; modified_base 10,11,12,16 /mod_base = “2′-deoxy-2′-fluoro corresponding nucleoside”; modified_base 1,3,4,5,6,7,8,9,13,14,15,17,18,19,20,21,22 /mod_base = “2′-O-methyl correspon)
[1]
  Relative Expression day 4 (Hif2α mRNA in kidney tumor): 0.101

## AD01027 (antisense TAAAUCGUUACGUUGACAGTT; sense CUGUCAACGUAACGAUUUAT; Hif2alpha RNAi agent antisense strand; modified_base 2,4,6,8,10,12,14,16,18 /mod_base = “2′-deoxy-2′-fluoro corresponding nucleoside”; modified_base 3,5,9,11,13,15,17,19 /mod_base = “2′-O-methyl corresponding nucleoside”; modified_base 7 /mod_base = “2′-3′ seco corresponding nucleotide”; modified_base 21 /mod_base = “5′-phosphorothioate corresponding nucleotide”; Hif2alpha RNAi agent sense strand; modified_base 1,3,5,7,9,11,13,15,17,19 /mod_base = “2′-deoxy-2′-fluoro corresponding nucleoside”; modified_base 2,4,6,8,10,12,14,16,18 /mod_base = “2′-O-methyl corresponding nucleoside”; modified_b)
RNAi trigger 80 μg, polymer 126 400 μg
  Relative Expression day 4 (Hif2α mRNA in kidney tumor): 0.92
